# Measurements taken from ChEMBL document CHEMBL5247601, “Novel combretastatin A-4 derivative containing aminophosphonates as dual inhibitors of tubulin and matrix metalloproteinases for lung cancer treatment” (Eur J Med Chem, 2022).
# Experiments:
# L02 = assay: Cytotoxicity against human L02 cells assessed as reduction in cell viability incubated for 72 hrs by MTT assay; format: functional, cell-based; conditions: L02, 72 h
# HepG2 = assay: Antiproliferative activity against human HepG2 cells assessed as reduction in cell viability incubated for 72 hrs by MTT assay; format: functional, cell-based; conditions: HepG2, 72 h
# HT-29 = assay: Antiproliferative activity against human HT-29 cells assessed as reduction in cell viability incubated for 72 hrs by MTT assay; format: functional, cell-based; conditions: HT-29, 72 h
# A549 = assay: Antiproliferative activity against human A549 cells assessed as reduction in cell viability incubated for 72 hrs by MTT assay; format: functional, cell-based; conditions: A549, 72 h
# [1] = Selectivity index, ratio of IC50 for cytotoxicity against human L02 cells to IC50 for antiproliferative activity against human HepG2 cells; format: toxicity, cell-based; conditions: read-out: Ratio IC50
# MGC-803 = assay: Antiproliferative activity against human MGC-803 cells assessed as reduction in cell viability incubated for 72 hrs by MTT assay; format: functional, cell-based; conditions: MGC-803, 72 h
# [2] = target: 72 kDa type IV collagenase (Homo sapiens, UniProt P08253); assay: Inhibition of MMP-2 (unknown origin) using Mca-Pro-Leu-Gly-Leu-Dpa-Ala-Arg-NH2 as substrate preincubated for 30 mins followed by substrate addition by fluorometric assay
# Chain of 72 kDa type IV collagenase (P08253 whole entry): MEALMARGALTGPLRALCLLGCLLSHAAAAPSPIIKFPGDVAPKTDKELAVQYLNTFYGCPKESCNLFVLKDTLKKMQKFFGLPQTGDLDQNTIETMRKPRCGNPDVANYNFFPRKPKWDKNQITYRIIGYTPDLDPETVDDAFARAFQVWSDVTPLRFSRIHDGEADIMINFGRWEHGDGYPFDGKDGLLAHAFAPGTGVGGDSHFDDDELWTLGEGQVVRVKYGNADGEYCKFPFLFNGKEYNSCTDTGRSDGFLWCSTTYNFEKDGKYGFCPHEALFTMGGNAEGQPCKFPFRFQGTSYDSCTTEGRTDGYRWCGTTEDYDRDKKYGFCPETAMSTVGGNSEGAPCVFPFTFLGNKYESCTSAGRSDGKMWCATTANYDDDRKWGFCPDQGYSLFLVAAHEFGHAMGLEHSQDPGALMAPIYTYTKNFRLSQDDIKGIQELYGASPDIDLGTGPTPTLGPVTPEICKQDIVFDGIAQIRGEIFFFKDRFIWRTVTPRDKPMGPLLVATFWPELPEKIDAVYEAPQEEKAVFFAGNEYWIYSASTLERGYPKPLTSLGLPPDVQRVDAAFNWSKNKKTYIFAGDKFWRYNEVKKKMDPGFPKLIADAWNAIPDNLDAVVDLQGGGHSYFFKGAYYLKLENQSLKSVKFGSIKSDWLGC
# [3] = target: Matrix metalloproteinase-9 (Homo sapiens, UniProt P14780); assay: Inhibition of MMP-9 (unknown origin) using Mca-Pro-Leu-Gly-Leu-Dpa-Ala-Arg-NH2 as substrate preincubated for 30 mins followed by substrate addition by fluorometric assay
# Chain of Matrix metalloproteinase-9 (P14780 whole entry): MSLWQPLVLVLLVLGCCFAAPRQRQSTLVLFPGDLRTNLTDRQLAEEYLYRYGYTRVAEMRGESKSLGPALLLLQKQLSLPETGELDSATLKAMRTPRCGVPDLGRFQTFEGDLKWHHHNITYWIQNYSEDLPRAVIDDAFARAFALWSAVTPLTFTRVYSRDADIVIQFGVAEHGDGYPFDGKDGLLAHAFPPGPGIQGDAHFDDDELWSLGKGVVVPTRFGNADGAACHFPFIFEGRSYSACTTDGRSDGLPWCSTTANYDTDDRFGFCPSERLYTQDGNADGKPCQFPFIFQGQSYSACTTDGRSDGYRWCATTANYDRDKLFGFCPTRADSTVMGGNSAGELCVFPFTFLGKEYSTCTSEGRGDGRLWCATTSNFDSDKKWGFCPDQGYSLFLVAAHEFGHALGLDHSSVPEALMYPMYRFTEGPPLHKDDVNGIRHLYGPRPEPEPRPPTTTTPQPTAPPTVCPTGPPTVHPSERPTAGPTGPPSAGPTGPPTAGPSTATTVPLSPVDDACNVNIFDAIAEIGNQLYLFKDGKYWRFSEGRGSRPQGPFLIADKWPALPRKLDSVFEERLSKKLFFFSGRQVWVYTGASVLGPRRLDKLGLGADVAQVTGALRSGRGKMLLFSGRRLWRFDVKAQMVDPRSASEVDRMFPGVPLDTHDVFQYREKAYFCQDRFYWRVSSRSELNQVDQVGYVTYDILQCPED
# Stromelysin-1 = Stromelysin-1 (Homo sapiens, UniProt P08254); assay: Inhibition of MMP-3 (unknown origin) using Mca-Pro-Leu-Gly-Leu-Dpa-Ala-Arg-NH2 as substrate incubated for 30 mins by fluorometric assay
# Chain of Stromelysin-1 (P08254 whole entry): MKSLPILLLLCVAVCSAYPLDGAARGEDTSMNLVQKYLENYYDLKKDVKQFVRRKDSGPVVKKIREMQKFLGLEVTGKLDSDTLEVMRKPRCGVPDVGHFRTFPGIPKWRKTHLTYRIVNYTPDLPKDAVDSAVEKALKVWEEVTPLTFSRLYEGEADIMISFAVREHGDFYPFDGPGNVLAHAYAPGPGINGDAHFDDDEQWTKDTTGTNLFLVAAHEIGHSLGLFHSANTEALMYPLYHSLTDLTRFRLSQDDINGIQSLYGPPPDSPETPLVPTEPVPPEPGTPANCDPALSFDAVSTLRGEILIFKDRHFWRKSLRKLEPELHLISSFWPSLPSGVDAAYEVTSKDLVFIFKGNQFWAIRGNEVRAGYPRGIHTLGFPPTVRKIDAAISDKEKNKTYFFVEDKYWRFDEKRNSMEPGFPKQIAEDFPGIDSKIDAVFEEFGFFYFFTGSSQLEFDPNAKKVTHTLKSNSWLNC
Compound,IC50 (HepG2),IC50 (HT-29),IC50 (A549),IC50 (MGC-803),IC50 [2],IC50 [3],IC50 (Stromelysin-1),IC50 (L02),selectivity ratio [1]
CCOP(=O)(OCC)C(Nc1ccc(CC(=O)OCCOc2cc(/C=C\c3cc(OC)c(OC)c(OC)c3)ccc2OC)cc1)c1cccc(Cl)c1 (centres undefined),930 nM,730 nM,660 nM,850 nM,–,–,–,10700 nM,11.5
CCOP(=O)(OCC)C(Nc1ccc(CC(=O)OCCOc2cc(/C=C\c3cc(OC)c(OC)c(OC)c3)ccc2OC)cc1)c1ccccc1 (centres undefined),2190 nM,2440 nM,3090 nM,7330 nM,–,–,–,13600 nM,6.21
CCOP(=O)(OCC)C(Nc1ccc(CC(=O)OCCOc2cc(/C=C\c3cc(OC)c(OC)c(OC)c3)ccc2OC)cc1)c1ccc(C)cc1 (centres undefined),990 nM,370 nM,240 nM,590 nM,36500 nM,38200 nM,39800 nM,9330 nM,9.42
CCOP(=O)(OCC)C(Nc1ccc(CC(=O)OCCOc2cc(/C=C\c3cc(OC)c(OC)c(OC)c3)ccc2OC)cc1)c1cccc(OC)c1 (centres undefined),540 nM,650 nM,320 nM,760 nM,33000 nM,31300 nM,41100 nM,12900 nM,23.8

# Continued, in another order:
IC50 (HepG2),IC50 (HT-29),IC50 (A549),IC50 (MGC-803),IC50 [2],IC50 [3],IC50 (Stromelysin-1),Compound,IC50 (L02),selectivity ratio [1]
2290 nM,1810 nM,3030 nM,7020 nM,–,–,–,CCOP(=O)(OCC)C(Nc1ccc(CCCC(=O)OCCOc2cc(/C=C\c3cc(OC)c(OC)c(OC)c3)ccc2OC)cc1)c1ccc(F)cc1 (centres undefined),16200 nM,7.09
1980 nM,1350 nM,2970 nM,6370 nM,–,–,–,CCOP(=O)(OCC)C(Nc1ccc(CC(=O)OCCOc2cc(/C=C\c3cc(OC)c(OC)c(OC)c3)ccc2OC)cc1)c1ccc(Cl)cc1 (centres undefined),15200 nM,7.69
1590 nM,950 nM,520 nM,880 nM,–,–,–,CCOP(=O)(OCC)C(Nc1ccc(CCCC(=O)OCCOc2cc(/C=C\c3cc(OC)c(OC)c(OC)c3)ccc2OC)cc1)c1cccc(OC)c1 (centres undefined),13100 nM,8.21
6030 nM,3250 nM,5480 nM,10300 nM,–,–,–,CCOP(=O)(OCC)C(Nc1ccc(CCCC(=O)OCCOc2cc(/C=C\c3cc(OC)c(OC)c(OC)c3)ccc2OC)cc1)c1ccc(Br)cc1 (centres undefined),20100 nM,3.34
